Here are results for 17 compounds from patent US20040209914A1, “Aromatic sulfone hydroxamic acids and their use as protease inhibitors” (priority 2000, published 2004).

Like-named read-outs stand apart in the source and are kept apart here.

Assay in all cases: biochemical
Settings in all cases: fluorogenic MCA-peptide substrate, pH 7.5, room temperature

One experiment has as its target T1, Recombinant human MMP-1 (Homo sapiens, UniProt P03956).
T1 construct: made in house; host or cells: transfected HT-1080 cells
T1 sequence (P03956 100-469): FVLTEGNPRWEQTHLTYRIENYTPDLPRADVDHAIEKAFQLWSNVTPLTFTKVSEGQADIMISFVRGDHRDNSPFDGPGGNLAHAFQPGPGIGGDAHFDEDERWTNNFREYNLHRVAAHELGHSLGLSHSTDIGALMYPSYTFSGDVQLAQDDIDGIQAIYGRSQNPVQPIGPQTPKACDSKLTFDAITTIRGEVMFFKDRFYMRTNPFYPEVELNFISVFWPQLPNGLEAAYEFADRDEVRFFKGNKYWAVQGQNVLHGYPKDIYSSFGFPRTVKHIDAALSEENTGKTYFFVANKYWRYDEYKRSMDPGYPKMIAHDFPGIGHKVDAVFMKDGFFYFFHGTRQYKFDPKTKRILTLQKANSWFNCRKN
The gist of the method:
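Recombinant human MMP-1 from transfected HT-1080 cells, APMA-activated and hydroxamate-column purified, was incubated at room temperature with 4 uM MCA-ProLeuGlyLeuDpaAlaArgNH2 fluorogenic substrate. Inhibition taken as fall in fluorescence versus inhibitor concentration, giving IC50.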

The target of a further experiment is T2, Recombinant human MMP-2 (Homo sapiens, UniProt P08253).
T2 construct: made in house
T2 sequence (P08253 110-660): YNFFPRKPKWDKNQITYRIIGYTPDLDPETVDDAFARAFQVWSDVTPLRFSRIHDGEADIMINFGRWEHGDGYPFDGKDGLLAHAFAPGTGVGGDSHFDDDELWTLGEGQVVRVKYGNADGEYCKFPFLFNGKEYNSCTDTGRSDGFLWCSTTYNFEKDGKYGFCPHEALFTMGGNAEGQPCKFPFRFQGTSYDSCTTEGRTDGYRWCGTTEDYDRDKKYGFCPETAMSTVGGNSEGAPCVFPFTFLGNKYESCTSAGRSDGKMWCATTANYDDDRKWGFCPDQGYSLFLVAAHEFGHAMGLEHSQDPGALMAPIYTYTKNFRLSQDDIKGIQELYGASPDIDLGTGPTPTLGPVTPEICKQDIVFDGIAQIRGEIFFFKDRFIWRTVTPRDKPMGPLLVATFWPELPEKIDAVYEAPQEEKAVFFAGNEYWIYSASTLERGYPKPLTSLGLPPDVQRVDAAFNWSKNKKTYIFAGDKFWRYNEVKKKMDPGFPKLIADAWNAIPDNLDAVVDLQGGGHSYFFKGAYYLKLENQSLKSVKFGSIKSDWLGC
The gist of the method: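 Activated (APMA or trypsin) recombinant human MMP-2, from transfected expressing cells, incubated at room temperature with 4 uM fluorogenic substrate MCA-Pro-Leu-Gly-Leu-Dpa-Ala-Arg-NH2 and hydroxamate inhibitor.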

The next experiment has as its target T3, Recombinant human MMP-13 (Homo sapiens, UniProt P45452).
T3 construct: made in house; host or cells: baculovirus / insect cells
The gist of the method:
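APMA-activated MMP (proenzyme purified on heparin agarose and chelating zinc columns) incubated at room temperature with 4 uM fluorogenic MCA-ProLeuGlyLeuDpaAlaArgNH2 substrate. Inhibition read as reduced fluorescence versus inhibitor concentration relative to a DMSO control, giving IC50.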

As for `O=C(c1ccc(Cl)cc1)C1CCN(c2ccc(S(=O)(=O)C3(C(=O)NO)CCN(CC4CC4)CC3)cc2)CC1` [Example 123], the IC50 at Recombinant human MMP-1 was above 10000 nM; on Recombinant human MMP-2 (read-out: MMP-2 IC50), 46.3 nM; on Recombinant human MMP-13 (read-out: MMP-13 IC50), 0.1 nM.
On the same counts, the results for `Cc1ccc(C(=O)C2CCN(c3ccc(S(=O)(=O)C4(C(=O)NO)CCN(S(C)(=O)=O)CC4)cc3)CC2)cc1C` [Example 164] are above 10000 nM, 942 nM and 5.4 nM.
The like results for `CC(C)Oc1ccc(C(=O)C2CCN(c3ccc(S(=O)(=O)C4(C(=O)NO)CCN(C5CC5)CC4)cc3)CC2)cc1` [Example 215] were, in that order, above 10000 nM, 22.7 nM and 0.9 nM.
The like results for `COc1ccc(C(=O)C2CCN(c3ccc(S(=O)(=O)C4(C(=O)NO)CCN(CC5CC5)CC4)cc3)CC2)cc1` [Example 188] were, in that order, above 10000 nM, 250 nM and 2 nM.
On to `O=C(c1ccc(CCC2CCCC2)cc1)C1CCN(c2ccc(S(=O)(=O)C3(C(=O)NO)CCN(C4CC4)CC3)cc2)CC1` [Example 199], for which the results for the IC50 on Recombinant human MMP-1, on Recombinant human MMP-2 (read-out: MMP-2 IC50) and on Recombinant human MMP-13 (read-out: MMP-13 IC50) were above 10000 nM, 3390 nM and 11.7 nM, respectively.
As to `COCCN1CCC(C(=O)NO)(S(=O)(=O)c2ccc(N3CCC(C(=O)c4ccc(CC5CCC5)cc4)CC3)cc2)CC1` [Example 201], the IC50 is above 10000 nM at Recombinant human MMP-1, 6320 nM on Recombinant human MMP-2 (read-out: MMP-2 IC50) and 0.2 nM on Recombinant human MMP-13 (read-out: MMP-13 IC50).
Consider `O=C(C1CCN(c2ccc(S(=O)(=O)C3(C(=O)NO)CCOCC3)cc2)CC1)N1CCN(c2ncccn2)CC1` [Example 23], for which the IC50 at Recombinant human MMP-1 was above 10000 nM; at Recombinant human MMP-2 (MMP-2 IC50(nM)), 1600 nM; on Recombinant human MMP-13 (MMP-13 IC50(nM)), 6.4 nM.
Regarding `CCOC(=O)CN1CCN(C(=O)C2CCN(c3ccc(S(=O)(=O)C4(C(=O)NO)CCOCC4)cc3)CC2)CC1` [Example 11], the IC50 is above 10000 nM on Recombinant human MMP-1, 2700 nM on Recombinant human MMP-2 (read-out: MMP-2 IC50) and 37 nM at Recombinant human MMP-13 (read-out: MMP-13 IC50).
On the same counts, the results for `CC(C)N1CCN(C(=O)C2CCN(c3ccc(S(=O)(=O)C4(C(=O)NO)CCOCC4)cc3)CC2)CC1` [Example 15] are above 10000 nM, 5500 nM and 28 nM.
On the same counts, the results for `COCCN1CCC(C(=O)NO)(S(=O)(=O)c2ccc(N3CCC(C(=O)c4ccc(CC(C)CO)cc4)CC3)cc2)CC1` (stereo not drawn) [Example 231] are above 10000 nM, 39.4 nM and 0.5 nM.
Regarding `CC(C)CCOc1ccc(C(=O)C2CCN(c3ccc(S(=O)(=O)C4(C(=O)NO)CCN(C5CC5)CC4)cc3)CC2)cc1` [Example 217], the results for the IC50 on Recombinant human MMP-1, on Recombinant human MMP-2 (read-out: MMP-2 IC50) and on Recombinant human MMP-13 (read-out: MMP-13 IC50) were above 10000 nM, 270 nM and 1.3 nM, respectively.
On the same counts, the results for `CCCCc1ccc(C(=O)C2CCN(c3ccc(S(=O)(=O)C4(C(=O)NO)CCN(CCOC)CC4)cc3)CC2)s1` [Example 121] are above 10000 nM, 58.8 nM and 0.1 nM.
On the same counts, the results for `CC(C)Cc1ccc(C(=O)C2CCN(c3ccc(S(=O)(=O)C4(C(=O)NO)CCOCC4)cc3)CC2)cc1` [Example 377] are above 10000 nM, 361 nM and 0.4 nM.
On the same counts, the results for `CCN1CCC(C(=O)NO)(S(=O)(=O)c2ccc(N3CCC(C(=O)c4ccc(CC5CCC5)cc4)CC3)cc2)CC1` [Example 232] are above 10000 nM, 624 nM and 1.3 nM.
As to `O=C(c1ccc(Cl)cc1)C1CCN(c2ccc(S(=O)(=O)C3(C(=O)NO)CCN(C4CC4)CC3)cc2)CC1` [Example 213], the IC50 on Recombinant human MMP-1 was above 10000 nM; on Recombinant human MMP-2 (read-out: MMP-2 IC50), 25.8 nM; on Recombinant human MMP-13 (read-out: MMP-13 IC50), 0.5 nM.
The like results for `O=C(NO)C1(S(=O)(=O)c2ccc(N3CCC(c4ccc(Cl)cc4)CC3)cc2)CCN(C2CC2)CC1` [Example 270] were, in that order, above 10000 nM, 1.9 nM and 1.1 nM.
Consider `CCCc1ccc(C(=O)C2CCN(c3ccc(S(=O)(=O)C4(C(=O)NO)CCN(CC)CC4)cc3)CC2)cc1` [Example 170], for which the IC50 is above 10000 nM on Recombinant human MMP-1, 134 nM at Recombinant human MMP-2 (read-out: MMP-2 IC50) and 1.3 nM on Recombinant human MMP-13 (read-out: MMP-13 IC50).

As usually defined, the IC50 is the point on the concentration scale where inhibition reaches its midpoint.
